The values below come from BindingDB's records for doi:10.1016/j.bmcl.2003.11.033 (University of California, 2004).

For this assay, the target named is Tyrosinase (Agaricus bisporus). The experiment in a line: Inhibitory activity was evaluated against the oxidation of L-3,4-dihydroxyphenylalanine (L-DOPA) catalyzed by mushroom tyrosinase.

Structures are written as SMILES.

The term IC50 denotes the midpoint of a concentration-inhibition curve. Lower therefore signals greater potency. On to `COc1ccc(C=O)c(O)c1` [2-hydroxy-4-methoxybenzaldehyde], for which it took 30 µM to reach half-maximal inhibition (IC50).
